Where “and” joins values, the source holds several entries; their conditions need not be identical. Equal entries are not always repeated.
Tests used:
Type in all cases: in vivo, dog
[1] = tested on: Thiobarbituric acid reactive substances (TBARS); test: Serum TBARS (oxidative stress), Example 1; details: for TBARS, serum, Mean / Change in TBARS, post-run minus pre-run: Ex.1, 250 mg/d; for Change in TBARS, post-run minus pre-run: following 15 mile long run at 13 wk, mean ± SEM
Experimental: Blood Analysis: Serum samples were taken at three different times from each dog during the 90 day period. The blood samples were collected as follows: 1.) just prior to scanning each dog for body composition at the beginning of the study, 2.) prior to the long run on the 13th week, and 3.) following the long run on the 13th week. The serum samples were analyzed for Phosphocreatine Kinase and Canine Myoglobin to determine the amount of muscle protein leakage that occurred following the long run and TBARS and Total Antioxidant Capacity (TAC) were determined to evaluate the antioxidant status of each of the test dogs during the exercise program. The final blood sample was taken 24 hr after the long run to obtain maximum protein leakage based on previous similar types of exercise research with human athletes. Biomarkers and Assay Methods: Blood was drawn from each dog using a serum separator tube at three different times during the 90 day period: 1.) just prior to scanning each dog for body composition at the beginning of the study, 2.) prior to the long run on the 13th week, and 3.) following the long run on the 13th week. The final blood sample was taken 24 hr after the long run to obtain maximum protein leakage based on previous similar types of exercise research with human athletes. Each time after the blood was drawn it was allowed to clot before being centrifuged for 15 min at 2000 g at 4° C. Serum was aliquoted into 1.5 mL microcentrifuge tubes and stored at −80° C. until assays were ran following the end of the study. Creatine kinase (CK) and canine myoglobin were measured to determine the amount of muscle protein leakage that occurred following the long run. Thiobarbituric acid reactive substances (TBARS) and total antioxidant capacity (TAC) were measured to evaluate the antioxidant status of each of the test dogs during the exercise program. Serum samples were analyzed for total antioxidant capacity (TAC) and thiobarbituric acid reactive substances (TBARS) using commercially available colorimetric kits supplied by Cayman Chemical Company (Ann Arbor, Mich.) per manufacturer instructions. Serum canine myoglobin levels were determined using a commercially available ELISA supplied by Innovate Research (Novi, Mich.) per manufacturer instructions. Creatine kinase activity was determined colorimetrically using a commercially available kit supplied by BioVision (San Francisco, Calif.).

[2] = tested on: Labrador Retrievers; test: Subjective recovery score (soreness, lameness) after long runs, Example 1; details: Ex.1, 250 mg/d; observed 24 hr following each long run; either treatment
Source text: Each test dog wore an Actical activity monitor from Philips Respironics on a collar for the short higher intensity runs and also wore an Actical activity monitor for the weekly longer endurance runs. The activity data was downloaded into spread sheets along with each dogs identity. Twenty four hours after each long run during the 13 wk running program each of the dogs were scored by kennel staff for soreness or any type of lameness The exercise program was decreased in a tapering program during wk 11 and 12 to allow the dogs to rest for the final long run completed on wk 13. Pre-run serum samples from each test dog was taken 24 hr before the last endurance run. The heart rate and basal body temperature was determined for each test dog prior to the last long endurance run. A subjective recovery score was determined 24 hours after endurance run for each test dog once per week. The subjective recovery score (1-5; score of 1 for no soreness or stiffness in limbs and a score of 5 meant major soreness and stiffness) was based on ease of movement and soreness of each dog. The same subjective system was used 6 hr after the long 15 mile run and again at 24 and 48 hr to evaluate the recovery of the dogs as far as soreness and desire to move.

[3] = tested on: creatine kinase; test: Serum creatine kinase, Example 2 part one; details: for Creatine Kinase: serum
Experimental: (§1) Twenty-four hours after test dogs ran the last 15 mile endurance run, serum samples were taken to evaluate biomarkers for muscle damage and antioxidant status. Blood samples were taken 1) just prior to the beginning of the study; 2) 1 day prior to running the final 15 mile run on the 14th week; 3) 1 hour immediately following the 15 mile run; and 4) 24 hours following the final 15 mile run. After a blood sample was drawn, it was allowed to clot for 30 minutes at 25° C. before being centrifuged for 15 minutes at 2000 g at 4° C. Serum was aliquoted into 0.65 mL microcentrifuge tubes and stored at −80° C. until being assayed at the end of the study for creatine kinase, canine myoglobin, thiobarbituric acid reactive substances (TBARS), and total antioxidant capacity (TAC) using the commercially available kits described in Example 1.

[4] = tested on: total antioxidant capacity (TAC); test: Serum total antioxidant capacity (TAC), Example 2 part one; details: for TAC: serum
Experimental: as §1

[5] = Whole Groups, Post-Run 1 Hr, Post-Run 1 Hr
[6] = Whole Groups, Post-Run 24 Hr, Post-Run 24 Hr

C[N+](C)(C)C[C@H](O)CC(=O)[O-] [L-carnitine]
TBARS Least Sq Mean ([1]; Baseline): 12.53 μM MDA | TBARS Least Sq Mean ([1]; Baseline, F): 14.1 μM MDA | TBARS Least Sq Mean ([1]; Baseline, M): 10.96 μM MDA | TBARS, serum, Mean ([1]; Baseline, both sexes): 12.37 uM MDA | TBARS, serum, Mean ([1]; Baseline, females): 14.10 uM MDA | TBARS, serum, Mean ([1]; Baseline, males): 10.96 uM MDA | TBARS, serum, Mean ([1]; Post-run, both sexes): 12.59 uM MDA | TBARS, serum, Mean ([1]; Post-run, females): 14.47 uM MDA | TBARS, serum, Mean ([1]; Post-run, males): 11.06 uM MDA | TBARS, serum, Mean ([1]; Pre-run, both sexes): 12.18 uM MDA | TBARS, serum, Mean ([1]; Pre-run, females): 15.13 uM MDA | TBARS, serum, Mean ([1]; Pre-run, males): 9.77 uM MDA | Change in TBARS, post-run minus pre-run ([1]; both sexes): 0.41 μM MDA and 0.41 ± 0.71 n = 20 μM MDA | Change in TBARS, post-run minus pre-run ([1]; females): −0.7 ± 1.1 n = 9 μM MDA | Change in TBARS, post-run minus pre-run ([1]; males): 1.3 ± 0.9 n = 11 μM MDA | TBARS Least Sq Mean ([1]; Post-run): 12.76 μM MDA | TBARS Least Sq Mean ([1]; Post-run, F): 14.47 μM MDA | TBARS Least Sq Mean ([1]; Post-run, M): 11.06 μM MDA | TBARS Least Sq Mean ([1]; Pre-run): 12.45 μM MDA | TBARS Least Sq Mean ([1]; Pre-run, F): 15.13 μM MDA | TBARS Least Sq Mean ([1]; Pre-run, M): 9.77 μM MDA | TBARS Least Sq Mean ([1]; Treatment * Sex, F): 14.1 μM MDA | TBARS Least Sq Mean ([1]; Treatment * Sex, M): 10.96 μM MDA | TBARS Least Sq Mean ([1]; Treatment level, all dogs): 12.53 μM MDA | TBARS, mixed model Estimate, term Time[Post-run-Pre-run] * Treatment[L-carnitine] ([1]; serum, model term): −0.943 | TBARS, mixed model Estimate, term Time[Post-run-Pre-run] * Treatment[L-carnitine] * Sex[F] ([1]; serum, model term): −0.763 | TBARS, mixed model Estimate, term Time[Pre-run-Baseline] * Treatment[L-carnitine] ([1]; serum, model term): 0.8244 | TBARS, mixed model Estimate, term Time[Pre-run-Baseline] * Treatment[L-carnitine] * Sex[F] ([1]; serum, model term): 0.2021 | TBARS, mixed model Estimate, term Treatment[L-carnitine] ([1]; serum, model term): −0.5222 | TBARS, mixed model Estimate, term Treatment[L-carnitine] * Sex[F] ([1]; serum, model term): 0.4031 | Lameness or soreness after long runs (score 1-5) [2]: no noticeable effects | CK increase from pre-run values ([3]; Ex.2 part one, 250 mg/d, 1 hour post-endurance run): 10.81 units | CK values, serum ([3]; Ex.2 part one, 250 mg/d, 1 hour post-run): 26.39 mU/mL | CK values, serum ([3]; Ex.2 part one, 250 mg/d, 24 hour post-run): 23.06 mU/mL | Creatine Kinase ([3]; FEMALES, Baseline): 26.44 ± 3.08 mU · mL | Creatine Kinase ([3]; FEMALES, Post-Run 1 Hr): 26.8 ± 1.36 mU · mL | Creatine Kinase ([3]; FEMALES, Post-Run 24 Hr): 21.71 ± 0.79 mU · mL | Creatine Kinase ([3]; FEMALES, Pre-Run): 17.14 ± 1.96 mU · mL | Creatine Kinase ([3]; MALES, Baseline): 20.81 ± 2.98 mU/mL | Creatine Kinase ([3]; MALES, Post-Run 1 Hr): 25.98 ± 1.39 mU/mL | Creatine Kinase ([3]; MALES, Post-Run 24 Hr): 24.4 ± 1.53 mU/mL | Creatine Kinase ([3]; MALES, Pre-Run): 14.02 ± 1.98 mU/mL | Creatine Kinase ([3]; Whole Groups, Baseline): 23.63 ± 2.17 mU/mL | Creatine Kinase [3, 5]: 26.39 ± 0.96 mU/mL | Creatine Kinase [3, 6]: 23.06 ± 0.88 mU/mL | Creatine Kinase ([3]; Whole Groups, Pre-Run): 15.58 ± 1.4 mU/mL | TAC levels, serum ([4]; Ex.2 part one, 250 mg/d, post-run 24-hr): 0.16 mM Trolox equiv | TAC ([4]; FEMALES, Baseline): 0.15 ± 0.01 mM Trolox Equiv | TAC ([4]; FEMALES, Post-Run 1 Hr): 0.15 ± 0.01 mM Trolox Equiv | TAC ([4]; FEMALES, Post-Run 24 Hr): 0.16 ± 0.01 mM Trolox Equiv | TAC ([4]; FEMALES, Pre-Run): 0.13 ± 0.01 mM Trolox Equiv | TAC ([4]; MALES, Baseline): 0.18 ± 0.01 mM Trolox Equiv | TAC ([4]; MALES, Post-Run 1 Hr): 0.16 ± 0.01 mM Trolox Equiv | TAC ([4]; MALES, Post-Run 24 Hr): 0.16 ± 0.01 mM Trolox Equiv | TAC ([4]; MALES, Pre-Run): 0.15 ± 0.01 mM Trolox Equiv | TAC ([4]; Whole Groups, Baseline): 0.17 ± 0.01 mM Trolox Equiv | TAC [4, 5]: 0.15 ± 0.01 mM Trolox Equiv | TAC [4, 6]: 0.16 ± 0.01 mM Trolox Equiv | TAC ([4]; Whole Groups, Pre-Run): 0.14 ± 0.01 mM Trolox Equiv

Reference: patent US10016382B2, “Method for decreasing skeletal muscle damage and/or oxidative stress in mammals” (LONZA INC., priority 2014, dated 2018)
